The source of these data is PMC8876800, “Neuropsychopharmacology of Emerging Drugs of Abuse: meta- and para-Halogen-Ring-Substituted α-PVP (“flakka”) Derivatives” (International Journal of Molecular Sciences, 2022).

For assay [1], the system named is Swiss CD-1 mice. Description: Conditioned place preference (CPP). Type of assay: in vivo. The note with it: for CPP rewarding effects vs saline: highest dose 25 mg kg−1 i.p. The protocol:
(§1) Male Swiss CD-1 mice (Janvier, Le Genest, France) weighing 30–35 g (6–8 weeks old) were randomly assigned to an experimental group. The animals were housed (seven per cage) in polycarbonate cages with wood-derived bedding, in temperature-controlled conditions (22 ± 1 °C) under a 12 h light/dark cycle and had ad libitum access to food (standard laboratory diet, Panlab SL, Barcelona, Spain) and drinking water. All animal care and experimental protocols in this study were approved by the Animal Ethics Committee of the University of Barcelona under the supervision of the Autonomous Government of Catalonia and are in accordance with the guidelines of the European Community Council (2010/63/EU), as amended by Regulation (EU) 2019/1010. Efforts were made to minimize animal use and suffering. All studies involving animals comply with the ARRIVE guidelines. The animals were supervised before and throughout the study, immediately after injection, and during the behavioral experiment as well as 24 h after injection, and different parameters were visually evaluated for humane endpoints, such as abnormal posture, greater loss than 20%, self-mutilations, and strange vocalizations.
A place conditioning paradigm was used to determine the potential of the seven α-PVP derivatives to induce rewarding effects. The apparatus that is used for this test consists of two compartments, with differences in tactile and visual cues, communicated by a central corridor. Conditioned place preference (CPP) was performed as described by. Briefly, CPP was performed in three phases: preconditioning test and conditioning and post-conditioning test. During the preconditioning phase, mice had free access to both compartments during 15 min, and the time spent in each compartment was recorded and monitored (Smart 3.0 Panlab, Barcelona, Spain). During the conditioning phase (8 sessions), access to the corridor was closed, and mice received an i.p. injection of the corresponding α-PVP derivative and were immediately placed into one of the compartments for 20 min. The doses tested are in accordance with the ones used in the HLA experiment. On the alternative session, mice were placed for 20 min in the other compartment after receiving a saline i.p. injection. Mice in the control group received a saline injection in every session. The compartment and session in which mice received the drug was randomized. On the test day (post-conditioning phase), the same conditions as in the pre-conditioning phase applied. A preference score, expressed in seconds, was calculated as the difference between the time spent in the drug-paired compartment in the post-conditioning test minus the time spent in the preconditioning phase.
(§2) Data were expressed as mean ± SEM. […] High ratios indicate greater selectivity for DAT.

Assay [2] deals with T1, hDAT (Homo sapiens, UniProt Q01959). Description: Transporter binding assay, [3H]WIN35,428 displacement in HEK293 membranes. Also noted: expressed in transfected cells. The note with it: for hDAT/hSERT Affinity Ratio: ratio of binding affinities at hDAT and hSERT. The protocol: (§3) To prepare membranes, HEK293 cells expressing monoamine transporters were harvested from 80–90% confluent dishes. In short, cells were washed with ice-cold phosphate buffered saline (PBS) twice. An extra 5 mL of PBS was added, and cells were mechanically detached using a plastic scraper and subsequently pelleted by centrifugation (400× g for 10 min at 4 °C). The resulting pellet was resuspended in hypotonic HME buffer (20 mM HEPES NaOH, 1 mM EDTA, 2 mM MgCl2; pH 7.4) and then subjected to two freeze-thaw cycles in liquid nitrogen and homogenization through sonication at 4 °C. Membranes were collected by centrifugation (40,000× g for 30 min at 4 °C) and resuspended in an appropriate volume of HME buffer. Protein concentration was determined using the Bio-Rad Protein Reagent (Bio Rad Laboratories, Hercules, CA, USA). Membrane preparations were kept at −80 °C.
(hSERT assay, final concentration 3 nM)) diluted in the corresponding reaction buffer, 15 µg of membranes in 100 µL of reaction buffer, and 125 µL of the tested drug dilution. […] This non-specific binding also allows subtracting the binding to other components such as the microfiber filters or membrane lipids from the total binding values. Incubation was performed for 1 h at 22 °C. […] The filters were then placed into vials and scintillation cocktail was added. The trapped radioactivity was quantified by liquid scintillation counting. Specific binding of each drug to the transporter was defined as the difference between total binding (binding buffer in absence of drug) and non-specific binding.
Data were expressed as mean ± SEM.

The target in assay [3] is T1, hDAT. Kind of assay: Uptake inhibition assay, [3H]MPP+ uptake in transfected HEK293 cells. The note with it: for potency at inhibiting DAT relative to cocaine: [3H]MPP+ uptake at hDAT, vs cocaine.
Assay [4] deals with Swiss CD-1 mice. Kind of assay: Open field test: center vs. periphery (anxiety-like behavior). The class given is in vivo. The note with it: for acute anxiogenic effect (time in center of open field): 2.5, 10 and 25 mg kg−1 i.p., acute administration. The protocol: as §1
Open-field experiments are straight-forward tests that evaluate the animals’ activity in response to novelty (or anxiogenic environment) and pharmacological treatments. Each animal was placed into the center of an open field arena, with sufficient height to prevent the animals from escaping (25 cm length × 25 cm width × 40 cm height), and the time spent (in seconds) in the center (8 × 8 cm) or the periphery of the arena was monitored for 60 min (Smart 3.0 Panlab, Barcelona, Spain).
as §2

The target of assay [5] is T2, hSERT (Homo sapiens, UniProt P31645). Description: Uptake inhibition assay, [3H]5-HT uptake in transfected HEK293 cells.
Assay [6] concerns the target T2, hSERT. Description: Transporter binding assay, [3H]imipramine displacement in HEK293 membranes. Also noted: expressed in transfected cells. As for the experimental part: as §3
This non-specific binding also allows subtracting the binding to other components such as the microfiber filters or membrane lipids from the total binding values. Incubation was performed for 1 h at 22 °C. […] The filters were then placed into vials and scintillation cocktail was added. The trapped radioactivity was quantified by liquid scintillation counting. Specific binding of each drug to the transporter was defined as the difference between total binding (binding buffer in absence of drug) and non-specific binding.
as §2

For assay [7], the system named is Swiss CD-1 mice. Kind of assay: Horizontal locomotor activity (HLA). Type of assay: in vivo. The note with it: for HLA vs saline group: 2.5 mg kg−1 i.p., distance travelled in 60 min; for duration of the increase in locomotor activity: medium dose 10 mg kg−1 i.p., time course. As for the experimental part: as §1
A habituation phase was performed to reduce the novelty and stress associated with handling and injection. In this habituation phase, all mice received, for two consecutive days, an intraperitoneal (i.p.) saline injection and were then placed into a black Plexiglass open field arena (25 × 25 × 40 cm) under low-light conditions and white noise for 30 min. On the test day, the horizontal locomotor activity (HLA) produced by the tested cathinones was measured as described by, with minor modifications. Briefly, the animals received the corresponding i.p. injection (saline 5 mL kg^−1, 3-F-α-PVP, 4-F-α-PVP, 3-Cl-α-PVP, 4-Cl-α-PVP, 3,4-Cl2-α-PVP, 3-Br-α-PVP or 4-Br-α-PVP 2.5, 10 or 25 mg kg^−1 and were immediately placed in the open field arena with the same conditions of light and noise. HLA was video-monitored for 1 h, and their total travelled distance (in cm) was measured using a specific tracking software (Smart 3.0 Panlab, Barcelona, Spain).
as §2

Where only a bound is given, the exact number is not on record here.

A word on the Ki: it is the dissociation constant of the complex between target and ligand, obtained from inhibition or displacement. In general, IC50 refers to the concentration at which inhibition is half-maximal. The low end stands for greater potency in that assay, the high end for weaker potency in that assay.

T1 sequence (Q01959 whole entry): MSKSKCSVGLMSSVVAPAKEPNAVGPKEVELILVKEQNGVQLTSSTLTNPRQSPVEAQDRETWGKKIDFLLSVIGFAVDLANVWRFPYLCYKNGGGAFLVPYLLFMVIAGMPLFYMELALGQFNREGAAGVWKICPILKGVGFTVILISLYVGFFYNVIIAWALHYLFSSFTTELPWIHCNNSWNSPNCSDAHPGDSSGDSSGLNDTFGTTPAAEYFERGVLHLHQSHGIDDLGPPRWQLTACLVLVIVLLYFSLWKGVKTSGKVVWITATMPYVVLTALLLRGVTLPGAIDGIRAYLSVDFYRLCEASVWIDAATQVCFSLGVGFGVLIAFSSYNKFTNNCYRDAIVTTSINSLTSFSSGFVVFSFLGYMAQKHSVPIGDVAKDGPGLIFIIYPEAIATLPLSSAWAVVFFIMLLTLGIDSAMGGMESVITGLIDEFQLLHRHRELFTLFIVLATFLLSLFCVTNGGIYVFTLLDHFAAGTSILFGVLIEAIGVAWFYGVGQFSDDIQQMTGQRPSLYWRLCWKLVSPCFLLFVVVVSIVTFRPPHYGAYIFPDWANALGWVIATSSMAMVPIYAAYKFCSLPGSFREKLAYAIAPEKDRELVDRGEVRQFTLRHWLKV
T2 sequence (P31645 whole entry): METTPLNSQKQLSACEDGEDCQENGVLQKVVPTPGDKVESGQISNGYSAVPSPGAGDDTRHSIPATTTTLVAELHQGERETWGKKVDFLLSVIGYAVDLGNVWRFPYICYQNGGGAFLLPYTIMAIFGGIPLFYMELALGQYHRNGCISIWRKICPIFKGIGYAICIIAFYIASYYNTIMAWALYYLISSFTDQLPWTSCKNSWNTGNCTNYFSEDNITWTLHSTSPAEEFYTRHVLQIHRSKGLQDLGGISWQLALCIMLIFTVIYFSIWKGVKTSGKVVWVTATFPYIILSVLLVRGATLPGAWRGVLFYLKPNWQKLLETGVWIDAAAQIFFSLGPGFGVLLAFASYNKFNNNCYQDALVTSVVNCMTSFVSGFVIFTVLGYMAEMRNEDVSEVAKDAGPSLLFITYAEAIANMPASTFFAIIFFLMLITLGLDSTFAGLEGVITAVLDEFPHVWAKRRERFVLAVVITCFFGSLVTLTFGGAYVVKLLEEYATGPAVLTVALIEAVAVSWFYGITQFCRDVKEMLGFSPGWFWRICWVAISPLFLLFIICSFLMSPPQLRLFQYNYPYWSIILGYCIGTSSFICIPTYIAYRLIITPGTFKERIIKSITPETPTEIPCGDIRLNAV

As to `CCCC(C(=O)c1ccc(Cl)c(Cl)c1)N1CCCC1` (stereo not drawn) [3,4-Cl-α-PVP, 3,4-Dichloro-α-Pyrrolidinopentiophenone], the “CPP rewarding effects vs saline” value in the assay with Swiss CD-1 mice [1] is on record as “significant increase of the rewarding effects”. Moreover, at hDAT [2], affinity was put at a Ki of 11 nM and the “hDAT/hSERT Affinity Ratio” value turned out to be 462. Further, on hDAT [3], half-maximal inhibition (IC50) was put at 266 nM and the “hDAT/hSERT Inhibition Ratio” value turned out to be 47. The “acute anxiogenic effect (time in center of open field)” value (from here on “acute anxiogenic effect”) in the assay with Swiss CD-1 mice [4] is listed as “anxiogenic effect”. In addition, the IC50 at hSERT [5] is 12700 nM. For the same compound, on hSERT [6], the inhibition constant (Ki) was determined as 4990 nM.

Consider `CCCC(C(=O)c1cccc(Br)c1)N1CCCC1` (stereo not drawn) [3-Br-α-PVP, 3-Bromo-α-Pyrrolidinopentiophenone], for which the “CPP rewarding effects vs saline” value with Swiss CD-1 mice [1] was “significant increase of the rewarding effects”. Also, in the assay with Swiss CD-1 mice [1] (lowest dose 2.5 mg kg−1 i.p.), the “CPP rewarding properties vs saline” value is listed as “did not show rewarding properties”. At hDAT [2], the inhibitory constant (Ki) worked out at 12 nM and the “hDAT/hSERT Affinity Ratio” value came to 470. Further, at hDAT [3], the IC50 came to 117 nM, the “potency at inhibiting DAT relative to cocaine” value worked out at 2 fold and the “hDAT/hSERT Inhibition Ratio” value was determined as 341. Also, the “acute anxiogenic effect” value with Swiss CD-1 mice [4] is given as “anxiogenic effect”. On hSERT [5], this compound registered an IC50 of 40000 nM. In addition, the affinity at hSERT [6], expressed as Ki, was 5600 nM.

For `CCCC(C(=O)c1cccc(Cl)c1)N1CCCC1` (stereo not drawn) [3-Cl-α-PVP, 3-Chloro-α-Pyrrolidinopentiophenone], the “CPP rewarding effects vs saline” value in the assay on Swiss CD-1 mice [1] is on record as “did not induce significant rewarding effects”. Also, at hDAT [2], the Ki is 13 nM and the “hDAT/hSERT Affinity Ratio” value worked out at 1234. Also, on hDAT [3], the midpoint of inhibition, the IC50, lay at 349 nM and the “hDAT/hSERT Inhibition Ratio” value was found to be 95. Further, the “time in center of open field at the lowest dose” value with Swiss CD-1 mice [4] (2.5 mg kg−1 i.p.) is reported as “anxiogenic effects”. Further, the “acute anxiogenic effect” value in the assay on Swiss CD-1 mice [4] was “anxiogenic effect”. Further, the IC50 against hSERT [5] was determined as 33300 nM. This compound registered a Ki on hSERT [6] of 16400 nM. Moreover, in the assay on Swiss CD-1 mice [7], the “HLA vs saline group” value is recorded as “significant effect”. Also, in the assay on Swiss CD-1 mice [7] (25 mg kg−1 i.p.), the “HLA dose-response at the highest dose” value is reported as “ceiling effect”.

For the compound `CCCC(C(=O)c1cccc(F)c1)N1CCCC1` (stereo not drawn) [3-F-α-PVP, 3-Fluoro-α-Pyrrolidinopentiophenone], on hDAT [2], the affinity, expressed as Ki, was 14 nM and the “hDAT/hSERT Affinity Ratio” value is 4540. On hDAT [3], inhibition was half-maximal at 132 nM (IC50), the “potency at inhibiting DAT relative to cocaine” value turned out to be 2 fold and the “hDAT/hSERT Inhibition Ratio” value is listed as 1819. Also, the “acute anxiogenic effect” value in the assay on Swiss CD-1 mice [4] is given as “anxiogenic effect”. Besides, at hSERT [5], the IC50 was above 100000 nM. The Ki at hSERT [6] is 63500 nM. Also, in the assay with Swiss CD-1 mice [7], the “HLA vs saline group” value is recorded as “significant effect”.

Regarding `CCCC(C(=O)c1ccc(Br)cc1)N1CCCC1` (stereo not drawn) [4-Br-α-PVP, 4-Bromo-α-Pyrrolidinopentiophenone], the “CPP rewarding effects vs saline” value with Swiss CD-1 mice [1] is given as “significant increase of the rewarding effects”. At hDAT [2], affinity was put at a Ki of 24 nM and the “hDAT/hSERT Affinity Ratio” value is listed as 52. In addition, on hDAT [3], the IC50 is 156 nM, the “potency at inhibiting DAT relative to cocaine” value amounted to 2 fold and the “hDAT/hSERT Inhibition Ratio” value worked out at 148. In the assay on Swiss CD-1 mice [4], the “acute anxiogenic effect” value is recorded as “did not cause acute anxiogenic effects”. This compound also returned a concentration for half-maximal inhibition (IC50) against hSERT [5] of 23100 nM. The compound further yielded a Ki at hSERT [6] of 1250 nM. Moreover, the “duration of the increase in locomotor activity” value in the assay on Swiss CD-1 mice [7] is recorded as below 60 min.

For `CCCC(C(=O)c1ccc(Cl)cc1)N1CCCC1` (stereo not drawn) [4-Cl-α-PVP, 4-Chloro-α-Pyrrolidinopentiophenone], the “CPP rewarding effects vs saline” value in the assay on Swiss CD-1 mice [1] was “did not induce significant rewarding effects”. On hDAT [2], the Ki is 16 nM and the “hDAT/hSERT Affinity Ratio” value is 478. On hDAT [3], half-maximal inhibition (IC50) was put at 391 nM and the “hDAT/hSERT Inhibition Ratio” value was determined as 38. The “acute anxiogenic effect” value with Swiss CD-1 mice [4] is “anxiogenic effect”. At hSERT [5], this compound displayed a half-maximal inhibitory concentration (IC50) of 15200 nM. The compound also came in with a Ki at hSERT [6] of 7900 nM. In the assay on Swiss CD-1 mice [7], the “duration of the increase in locomotor activity” value is given as below 60 min.

On to `CCCC(C(=O)c1ccc(F)cc1)N1CCCC1` (stereo not drawn) [4-F-α-PVP, 4-Fluoro-α-Pyrrolidinopentiophenone], for which the “CPP rewarding effects vs saline” value in the assay on Swiss CD-1 mice [1] is “significant increase of the rewarding effects”. Besides, at hDAT [2], the Ki was found to be 49 nM and the “hDAT/hSERT Affinity Ratio” value came to 1173. On hDAT [3], half-maximal inhibition (IC50) was put at 154 nM, the “potency at inhibiting DAT relative to cocaine” value is recorded as 2 fold and the “hDAT/hSERT Inhibition Ratio” value was found to be 1366. Also, the “time in center of open field at the highest dose” value in the assay with Swiss CD-1 mice [4] (25 mg kg−1 i.p., effect only at this dose) was “decrease in the time spent in the center”. In the assay with Swiss CD-1 mice [4], the “acute anxiogenic effect” value is listed as “anxiogenic effect”. For the same compound, at hSERT [5], the IC50 is above 100000 nM. This compound displayed a Ki on hSERT [6] of 57900 nM.

In the case of `CCCC(C(=O)c1ccccc1)N1CCCC1` (stereo not drawn) [α-PVP, α-Pyrrolidinopentiophenone], at hDAT [2], the Ki is 17 nM and the “hDAT/hSERT Affinity Ratio” value was 8514. At hDAT [3], the half-maximal inhibitory concentration (IC50) came out at 129 nM and the “hDAT/hSERT Inhibition Ratio” value was found to be 3418. At hSERT [5], this compound displayed an IC50 above 100000 nM. The same compound yielded a Ki at hSERT [6] above 100000 nM.
